Test results from the supplement of paper PMC10307832.

Legend:
Test in all cases: relative viability (nuclei count vs DMSO), 5 days (fraction); higher = more cells survive
[1] = system: SW 900
Outline: (§1)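 Cells from lung cancer lines were seeded into 1536-well plates and, one day later, dosed by pin tool. Treatments were either a single drug or a fixed dose of an anchor drug with five library-drug doses (not always all listed) in √10 steps. After 5 days, nuclei were stained in a one-step fixation (final 0.05% Triton X-100, 1% formaldehyde, 1 ug/ml Hoechst) and counted on 4× images, and relative viability is the treated-to-vehicle nuclei ratio, as the median of duplicate plates.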

[2] = system: HARA
Outline: as §1

[3] = system: BEN
Outline: as §1

[4] = system: EKVX
Outline: as §1

[5] = system: NCI-H2170
Outline: as §1

[6] = system: NCI-H2009
Outline: as §1

[7] = system: NCI-H1437
Outline: as §1

[8] = system: PC-14
Outline: as §1

[9] = system: CAL-12T
Outline: as §1

[10] = system: NCI-H727
Outline: as §1

[11] = system: COR-L 105
Outline: as §1

With COc1cc2nccc(Oc3ccc(NC(=O)Nc4cc(C)on4)c(Cl)c3)c2cc1OC [Tivozanib] + COc1cc2c(Oc3ccc(NC(=O)C4(C(=O)Nc5ccc(F)cc5)CC4)cc3F)ccnc2cc1OCCCN1CCOCC1 [Foretinib] (partner 0.25 µM) the relative viability ([1]; first compound 0.005 µM) was 0.806, the relative viability ([1]; first compound 0.01581 µM) was 0.884 and the relative viability ([1]; first compound 0.05 µM) was 0.733. For the same molecule, the relative viability ([1]; first compound 0.1581 µM) was 0.697, the relative viability ([1]; first compound 0.5 µM) was 0.924 and the relative viability ([2]; first compound 0.005 µM) was 0.859. The relative viability ([2]; first compound 0.01581 µM) was 0.855, the relative viability ([2]; first compound 0.05 µM) was 0.928 and the relative viability ([2]; first compound 0.1581 µM) was 0.952. It also gave a relative viability ([2]; first compound 0.5 µM) of 0.905, a relative viability ([3]; first compound 0.005 µM) of 0.559 and a relative viability ([3]; first compound 0.01581 µM) of 0.789. The relative viability ([3]; first compound 0.05 µM) was 0.731, the relative viability ([3]; first compound 0.1581 µM) was 0.25 and the relative viability ([3]; first compound 0.5 µM) was 0.456. For the same molecule, the relative viability ([4]; first compound 0.005 µM) was 0.695, the relative viability ([4]; first compound 0.01581 µM) was 0.891 and the relative viability ([4]; first compound 0.05 µM) was 0.84. The relative viability ([4]; first compound 0.1581 µM) was 0.456, the relative viability ([4]; first compound 0.5 µM) was 0.786 and the relative viability ([5]; first compound 0.005 µM) was 0.943. For the same molecule, the relative viability ([5]; first compound 0.01581 µM) was 0.982, the relative viability ([5]; first compound 0.05 µM) was 0.975 and the relative viability ([5]; first compound 0.1581 µM) was 1.02. For the same molecule, the relative viability ([5]; first compound 0.5 µM) was 1.06, the relative viability ([6]; first compound 0.005 µM) was 1.2 and the relative viability ([6]; first compound 0.01581 µM) was 1.16. It also gave a relative viability ([6]; first compound 0.05 µM) of 1.19, a relative viability ([6]; first compound 0.1581 µM) of 1.19 and a relative viability ([6]; first compound 0.5 µM) of 1.13. For the same molecule, the relative viability ([7]; first compound 0.005 µM) was 1.1, the relative viability ([7]; first compound 0.01581 µM) was 1.22 and the relative viability ([7]; first compound 0.05 µM) was 1.18. For the same molecule, the relative viability ([7]; first compound 0.1581 µM) was 1.24, the relative viability ([7]; first compound 0.5 µM) was 1.25 and the relative viability ([8]; first compound 0.005 µM) was 0.911. For the same molecule, the relative viability ([8]; first compound 0.01581 µM) was 0.959, the relative viability ([8]; first compound 0.05 µM) was 1.01 and the relative viability ([8]; first compound 0.1581 µM) was 1.09. The relative viability ([8]; first compound 0.5 µM) was 0.904, the relative viability ([9]; first compound 0.005 µM) was 1.07 and the relative viability ([9]; first compound 0.01581 µM) was 0.998. The relative viability ([9]; first compound 0.05 µM) was 1.11, the relative viability ([9]; first compound 0.1581 µM) was 1.24 and the relative viability ([9]; first compound 0.5 µM) was 0.916. For the same molecule, the relative viability ([10]; first compound 0.005 µM) was 0.963, the relative viability ([10]; first compound 0.01581 µM) was 1.04 and the relative viability ([10]; first compound 0.05 µM) was 1.32. For the same molecule, the relative viability ([10]; first compound 0.1581 µM) was 0.853, the relative viability ([10]; first compound 0.5 µM) was 0.89 and the relative viability ([11]; first compound 0.005 µM) was 1.06. The relative viability ([11]; first compound 0.01581 µM) was 1.06, the relative viability ([11]; first compound 0.05 µM) was 1.13 and the relative viability ([11]; first compound 0.1581 µM) was 1.23. It also gave a relative viability ([11]; first compound 0.5 µM) of 1.11.
